Experimental findings from ChEMBL document CHEMBL2046319, “Synthesis and cytotoxicity of lupane-type triterpenoid glyceryl esters” (Bioorg Med Chem Lett, 2012) are described below.

One experiment relates to A549. Kind of experiment: Cytotoxicity against human A549 cells by Alamar Blue dye assay. It is filed as functional, cell-based.
In another experiment the test system is DLD-1. As to the kind of experiment: Cytotoxicity against human DLD1 cells by Alamar Blue dye assay. In kind it is functional, cell-based. Background: Alamar Blue is a resazurin reagent that responds to reducing activity.
Experiment [1] can be described thus: Cytotoxicity against human WS1 cells by Alamar Blue dye assay. It is filed as cell-based.

As usually defined, the IC50 is the midpoint of a concentration-inhibition curve.

Where only a bound is given, the exact number is not on record here.

As to `C=C(C)[C@@H]1CC[C@]2(C(=O)OC[C@H]3COC(C)(C)O3)CC[C@]3(C)[C@H](CC[C@@H]4[C@@]5(C)CC[C@H](O)C(C)(C)[C@@H]5CC[C@]43C)[C@@H]12`, the figures for the IC50 (in the experiment with A549; in the experiment with DLD-1; in experiment [1]) were 30 µM, 96 µM and 43 µM, respectively.
As for `C=C(C)[C@@H]1CC[C@]2(C(=O)OC[C@H]3COC(C)(C)O3)CC[C@]3(C)[C@H](CC[C@@H]4[C@@]5(C)CC[C@H](OC(C)=O)C(C)(C)[C@@H]5CC[C@]43C)[C@@H]12`, the IC50 (in the experiment on A549; in the experiment with DLD-1; in experiment [1]) was greater than 100 µM each time.
Turning to `C=C(C)[C@@H]1CC[C@]2(C(=O)OC[C@H](O)CO)CC[C@]3(C)[C@H](CC[C@@H]4[C@@]5(C)CC[C@H](O)C(C)(C)[C@@H]5CC[C@]43C)[C@@H]12`, the IC50 with A549 was found to be 16 µM; with DLD-1, 23 µM; in experiment [1] it was 13.7 µM.
On to `C=C(C)[C@@H]1CC[C@]2(C(=O)OC[C@H](O)CO)CC[C@]3(C)[C@H](CC[C@@H]4[C@@]5(C)CC[C@H](OC(C)=O)C(C)(C)[C@@H]5CC[C@]43C)[C@@H]12`, for which the IC50 in the experiment with A549 is 16.5 µM; with DLD-1, 18 µM; in experiment [1], 15 µM.
`C=C(C)[C@@H]1CC[C@]2(COC(=O)[C@H]3COC(C)(C)O3)CC[C@]3(C)[C@H](CC[C@@H]4[C@@]5(C)CC[C@H](OC(=O)[C@H]6COC(C)(C)O6)C(C)(C)[C@@H]5CC[C@]43C)[C@@H]12`: the IC50 (in the experiment with A549; in the experiment with DLD-1; in experiment [1]) was greater than 100 µM each time.
Regarding `C=C(C)[C@@H]1CC[C@]2(COC(=O)[C@H]3COC(C)(C)O3)CC[C@]3(C)[C@H](CC[C@@H]4[C@@]5(C)CC[C@H](OC(C)=O)C(C)(C)[C@@H]5CC[C@]43C)[C@@H]12`, the IC50 (in the experiment on A549; in the experiment with DLD-1; in experiment [1]) was greater than 100 µM each time.
As for `C=C(C)[C@@H]1CC[C@]2(COC(C)=O)CC[C@]3(C)[C@H](CC[C@@H]4[C@@]5(C)CC[C@H](OC(=O)[C@H]6COC(C)(C)O6)C(C)(C)[C@@H]5CC[C@]43C)[C@@H]12`, the IC50 (with A549; in the experiment with DLD-1; in experiment [1]) was greater than 100 µM throughout.
With `C=C(C)[C@@H]1CC[C@]2(COC(=O)[C@H](O)CO)CC[C@]3(C)[C@H](CC[C@@H]4[C@@]5(C)CC[C@H](OC(=O)[C@H](O)CO)C(C)(C)[C@@H]5CC[C@]43C)[C@@H]12`, the results for the IC50 (in the experiment with A549; in the experiment with DLD-1; in experiment [1]) were 31 µM, 39 µM and 40 µM, respectively.
For `C=C(C)[C@@H]1CC[C@]2(COC(=O)[C@H](O)CO)CC[C@]3(C)[C@H](CC[C@@H]4[C@@]5(C)CC[C@H](OC(C)=O)C(C)(C)[C@@H]5CC[C@]43C)[C@@H]12`, the results for the IC50 (with A549; with DLD-1; in experiment [1]) were 16.3 µM, 16 µM and 16 µM, respectively.
As for `C=C(C)[C@@H]1CC[C@]2(COC(C)=O)CC[C@]3(C)[C@H](CC[C@@H]4[C@@]5(C)CC[C@H](OC(=O)[C@H](O)CO)C(C)(C)[C@@H]5CC[C@]43C)[C@@H]12`, the results for the IC50 (with A549; in the experiment with DLD-1; in experiment [1]) were 15.5 µM, 16 µM and 15 µM, respectively.
